What was measured:
Format in all cases: in vivo
[1] = test system: cattle tick larvae (Rhipicephalus microplus), strain Parkhurst, resistant against synthetic pyrethroids; experiment: Rhipicephalus (Boophilus) microplus in-vitro contact test, larval cattle tick; details: 5 μg/cm^2 (=500 g/ha), after 48 hours, read-out: efficacy (larvae dead or moribund)
In short: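 Efficacy, 100% meaning all larvae dead or moribund, was judged at 48 h from loss of negative geotactic climbing. Larvae of the Parkhurst strain, 20–50 per tube, were exposed at 27° C and 85% humidity to acetone-coated tube surfaces; 900 ppm corresponded to 5 μg/cm^2.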

[2] = test system: adult engorged female ticks (Rhipicephalus microplus); experiment: Rhipicephalus (Boophilus) microplus injection test; details: 168 h, egg deposition after 7 days, read-out: efficacy (infertile eggs); for pest or weed control at 0.004 mg: 4 μg/animal; for pest or weed control at 0.02 mg: 20 μg/animal
In short: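 Efficacy is the share of infertile eggs: 100% means none are fertile, 0% means all are fertile. Egg deposition was checked 7 days after injecting 1 μL of DMSO-diluted compound into the abdomen of five engorged female R. microplus, with doubtful eggs kept about 42 days to hatching. The stock was 10 mg in 0.5 mL DMSO.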

[3] = test system: adult unfed cat fleas (Ctenocephalides felis); experiment: Ctenocephalides felis oral test; details: 48 h, 100 ppm in cattle blood, after 2 days
In short: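 Percent flea mortality recorded at 2 days. Compound was dissolved in dimethyl sulfoxide and diluted into cattle blood, which ~20 unfed adult cat fleas ingested through parafilm from a 37°C-heated chamber, their own chamber kept at room temperature.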

[4] = test system: adult brown dog ticks (Rhipicephalus sanguineus); experiment: Rhipicephalus sanguineus in-vitro contact test with adult brown dog ticks; details: after 48 hours, read-out: efficacy (ticks dead or moribund); for pest or weed control at 1 µg/cm2, 100 g/ha: 1 μg/cm^2 (=100 g/ha); for pest or weed control at 5 µg/cm2, 500 g/ha: 5 μg/cm^2 (=500 g/ha)
In short: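 Efficacy is the percentage of adult ticks dead or moribund, meaning immotile or uncoordinated and unable to escape 45-50° C. heat within 5 min. Read 48 h after 5-10 ticks were enclosed at room temperature in acetone-coated glass tubes. Dose 5 μg/cm^2, from a 900 ppm coating solution.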

[5] = test system: larvae of the banded cucumber beetle (Diabrotica balteata); experiment: Diabrotica balteata spray test; details: 168 h, after 7 days, wheat seeds, read-out: efficacy (seedlings grown up); for pest or weed control at 32 µg/disc, 100 g/ha: 100 g/ha (=32 μg/well); for pest or weed control at 160 µg/disc, 500 g/ha: 500 g/ha (=160 μg/well)
In short: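 Efficacy (%) read at day 7: 100% means seedlings grew like untreated, uninfested controls; 0% means no seedlings grew. Wheat seeds germinated 1 day on agar, sprayed with emulsified compound solution (1000 ppm emulsifier in water), then each well infested with 10-20 larvae.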

[6] = test system: green peach aphid (Myzus persicae); experiment: Myzus persicae oral test; details: 120 h
In short: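 Readout: % mortality at day 5, where 100% = all aphids dead and 0% = none dead. Feeding via parafilm membrane over compound in IPL41 medium (33%+15% sugar); mixed-age population. Stock in acetone (1:100 w/w), water-diluted.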

[7] = test system: green peach aphid (Myzus persicae); experiment: Myzus persicae spray test; details: foliar, 120 h, after 5 days, Chinese cabbage leaf disks
In short: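 Chinese cabbage leaf disks carrying all instars of Myzus persicae were sprayed with compound. The formulation was acetone/dimethylformamide diluted in water with 1000 ppm alkylarylpolyglycol ether emulsifier. Percent mortality was scored after 5 days, with 100% meaning all aphids killed.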

[8] = test system: larvae of the southern green stink bug (Nezara viridula); experiment: Nezara viridula spray test; details: in Hordeum vulgare, 96 h
In short: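 Percent mortality of southern green stink bug larvae read 4 days after spraying infested Hordeum vulgare. Test solutions: compound in acetone plus dimethylformamide, diluted with emulsifier-containing water (1000 ppm alkylarylpolyglycol ether).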

[9] = test system: fall armyworm larvae (Spodoptera frugiperda); experiment: Spodoptera frugiperda spray test (maize leaf sections); details: 168 h
In short: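 Percent kill of Spodoptera frugiperda larvae was recorded 7 days after infesting dried, treated maize leaf sections. Spray solutions were made from an acetone/DMF compound preparation diluted with 1000 ppm emulsifier-containing water.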

[10] = test system: two spotted spidermite (Tetranychus urticae); experiment: Tetranychus urticae spray test, OP-resistant; details: foliar, 144 h, after 6 days, French bean leaf disks
Procedure: Solvent: 78.0 parts by weight acetone • 1.5 parts by weight dimethylformamide
Emulsifier: alkylarylpolyglycol ether
To produce a suitable preparation of active compound, 1 part by weight of active compound is mixed with the stated amount of solvents and is diluted with water, containing an emulsifier concentration of 1000 ppm, to the desired concentration. Further test concentrations are prepared by dilution with emulsifier containing water.
French bean (Phaseolus vulgaris) leaf disks infected with all instars of the two spotted spidermite (Tetranychus urticae), are sprayed with a preparation of the active ingredient of the desired concentration.
After 6 days mortality in % is determined. 100% means all spider mites have been killed and 0% means none of the spider mites have been killed.

[11] = test system: caterpillars of the fall army worm (Spodoptera frugiperda); experiment: Spodoptera frugiperda spray test (cotton leaves); details: 168 h
In short: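 Cotton leaves sprayed with compound in water/DMF with 1000 ppm alkylaryl polyglycol ether emulsifier, ammonium salt and/or penetration enhancer at 1000 ppm added if necessary, then infested with fall armyworm caterpillars. Mortality in % scored after 7 days; 100% means all caterpillars killed.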

[12] = test system: adult cat fleas (Ctenocephalides felis); experiment: Ctenocephalides felis in-vitro contact test, adult cat flea; details: 5 μg/cm^2 (=500 g/ha), after 48 hours, read-out: efficacy (fleas dead or moribund)
In short: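 Efficacy (%) counts fleas that are dead or moribund, meaning unable to escape heat (45-50 °C, ≤5 min) by climbing. Scoring was done 48 h after 5-10 adults were placed at room temperature in glass tubes. The tubes carried a dried acetone film of compound, 5 μg/cm^2 at 900 ppm.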

[13] = test system: brown planthopper (Nilaparvata lugens); experiment: Nilaparvata lugens spray test; details: in Oryza sativa, 96 h
In short: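 Rice plants (Oryza sativa) sprayed with compound in acetone/DMF diluted in water containing 1000 ppm alkylarylpolyglycol ether emulsifier, then infested with planthoppers. Mortality % scored after 4 days (100% = all killed, 0% = none killed).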

[14] = test system: Aedes aegypti strain MONHEIM; experiment: Aedes aegypti test (AEDSAE surface treatment & contact assay); details: 24 hours after contact, read-out: efficacy (mortality)
Procedure: (§1) Solvent: Aceton+2000 ppm rapeseed oil methyl ester (RME)
(§2) In order to produce a sufficient, active ingredient containing solution it is necessary to solve the test compound in the solvent-mix (acetone at 2 mg/ml/RME 2000 ppm). This solution is pipetted onto a glazed tile and after evaporation of the acetone, adult mosquitoes of the species Aedes aegypti strain MONHEIM are placed onto the dried surface. The exposure time is 30 minutes. Mortality in percent (%) is determined 24 hours after contact of the insects to the treated surface. 100% mortality means that all tested insects are dead, whereas 0% means that no insect died.

[15] = test system: Anopheles funestus strain FUMOZ-R; experiment: Anopheles funestus test (ANPHFU surface treatment & contact assay); details: surface concentration 20 mg/m^2, 30 minutes exposure, 24 hours after contact, read-out: efficacy (mortality)
Procedure: as §1
(§3) In order to produce a sufficient, active ingredient containing solution it is necessary to solve the test compound in the solvent-mix (acetone at 2 mg/ml/RME 2000 ppm). This solution is pipetted onto a glazed tile and after evaporation of the acetone, adult mosquitoes of the species Anopheles funestus strain FUMOZ-R (Hunt et al., Med. Vet. Entomol. 2005 September; 19(3): 271-275) are placed onto the dried surface. The exposure time is 30 minutes.
(§4) Mortality in percent (%) is determined 24 hours after contact of the insects to the treated surface. 100% mortality means that all tested insects are dead, whereas 0% means that no insect died.

[16] = test system: Musca domestica strain WHO-N; experiment: Musca domestica test (MUSCDO surface treatment & contact assay); details: 24 hours after contact, read-out: efficacy (mortality)
Procedure: as §1
as §2, with “flies” for “mosquitoes”, “Musca domestica” for “Aedes aegypti”, “WHO-N” for “MONHEIM”

[17] = test system: Blattella germanica strain PAULINIA; experiment: Blattella germanica test (BLTTGE surface treatment & contact assay); details: 24 hours after contact, read-out: efficacy (mortality)
Procedure: as §1
as §3, with “animals” for “mosquitoes”, “Blattella germanica” for “Anopheles funestus”, “PAULINIA” for “FUMOZ-R (Hunt et al., Med. Vet. Entomol. 2005 September; 19(3): 271-275)”
as §4

[18] = test system: southern root-knot nematode (Meloidogyne incognita); experiment: Meloidogyne incognita test; details: 336 h, after 14 days, read-out: nematicidal activity (gall formation)
Procedure: Solvent: 125.0 parts by weight of acetone
To produce a suitable preparation of active compound, 1 part by weight of active compound is mixed with the stated amount of solvent, and the concentrate is diluted with water to the desired concentration.
Vessels are filled with sand, a solution of the active ingredient, a suspension containing eggs and larvae of the southern root-knot nematode (Meloidogyne incognita) and salad seeds. The salad seeds germinate and the seedlings grow. Galls develop in the roots.
After 14 days the nematicidal activity is determined on the basis of the percentage of gall formation. 100% means no galls were found and 0% means the number of galls found on the roots of the treated plants was equal to that in untreated control plants.

[19] = surface concentration 4 mg/m^2, 30 minutes exposure
[20] = surface concentration 20 mg/m^2, 30 minutes exposure

Molecule CC(NC(=O)c1cc(Cl)cc(S(C)(=O)=O)c1)c1nc(NC(=O)C2(Cl)CC2)nn1-c1ccc(Cl)cn1 (centres unmarked) [I-012] has a pest or weed control at 5 µg/cm2 [1] of 100%, a pest or weed control at 0.004 mg [2] of 100% and a pest or weed control at 0.02 mg [2] of 100%. It also gave a mortality at 100 ppm [3] of 100%, a pest or weed control at 1 µg/cm2, 100 g/ha [4] of 100% and a pest or weed control at 5 µg/cm2, 500 g/ha [4] of 100%. For the same molecule, the pest or weed control at 32 µg/disc, 100 g/ha [5] was 100%, the pest or weed control at 160 µg/disc, 500 g/ha [5] was 100% and the mortality at 4 ppm [6] was 100%. It also gave a mortality at 500 g/ha ([7]; 500 g/ha) of 90%, a mortality at 100 g/ha [8] of 100% and a mortality at 500 g/ha [8] of 100%. For the same molecule, the mortality at 100 g/ha [9] was 100%, the mortality at 500 g/ha [9] was 100% and the mortality at 500 g/ha [10] was 90%. The mortality at 20 ppm [11] was 100%.

For CC(NC(=O)c1cc(Cl)cc(C(F)(F)F)c1)c1nc(NC(=O)OC(C)(C)C)nn1-c1ccc(Cl)cn1 (centres unmarked) [I-003], the pest or weed control at 0.004 mg [2] was 80%, the pest or weed control at 0.02 mg [2] was 100% and the mortality at 500 g/ha [10] was 90%.

With C[C@H](NC(=O)c1cc(OC(F)(F)F)cc(C2CC2)c1)c1nc(N(C)C)nn1-c1ncccn1 [I-138] the pest or weed control at 5 µg/cm2 [1] was 100%, the pest or weed control at 5 µg/cm2 [12] was 100% and the pest or weed control at 1 µg/cm2, 100 g/ha [4] was 100%. The pest or weed control at 5 µg/cm2, 500 g/ha [4] was 100%, the pest or weed control at 32 µg/disc, 100 g/ha [5] was 100% and the mortality at 100 g/ha ([7]; 100 g/ha) was 90%. The mortality at 500 g/ha [13] was 100%, the mortality at 100 g/ha [9] was 100% and the mortality at 4 mg/m2 [14, 19] was 90 to 100%. For the same molecule, the mortality at 20 mg/m2 [14, 20] was 90 to 100%, the mortality at 20 mg/m2 [15] was 90 to 100% and the mortality at 4 mg/m2 [16, 19] was 90 to 100%. The mortality at 20 mg/m2 [16, 20] was 90 to 100%, the mortality at 4 mg/m2 [17, 19] was 90 to 100% and the mortality at 20 mg/m2 [17, 20] was 90 to 100%.

CC(NC(=O)c1cc(Cl)cc(C(F)(F)F)c1)c1nc(NC(=O)CC(F)(F)F)nn1-c1ccc(Cl)cn1 (centres unmarked) [I-016] showed a pest or weed control at 5 µg/cm2 [1] of 100%, a pest or weed control at 0.004 mg [2] of 100% and a pest or weed control at 0.02 mg [2] of 100%. For the same molecule, the mortality at 100 ppm [3] was 100%, the pest or weed control at 32 µg/disc, 100 g/ha [5] was 100% and the pest or weed control at 160 µg/disc, 500 g/ha [5] was 100%. The mortality at 100 g/ha [9] was 100%, the mortality at 500 g/ha [9] was 100% and the mortality at 500 g/ha [10] was 90%. For the same molecule, the mortality at 20 ppm [11] was 100%.

In the case of CC(NC(=O)c1cc(Cl)cc(C(F)(F)F)c1)c1nc([S+](C)[O-])nn1-c1ccc(Cl)cn1 (centres unmarked) [I-064], the pest or weed control at 32 µg/disc, 100 g/ha [5] is reported as 100%, the pest or weed control at 160 µg/disc, 500 g/ha [5] is reported as 100% and the pest or weed control at 20 ppm [18] is reported as 90%. The mortality at 4 ppm [6] was 100%, the mortality at 100 g/ha [8] was 100% and the mortality at 500 g/ha [8] was 100%. The mortality at 100 g/ha [9] was 100%, the mortality at 500 g/ha [9] was 100% and the mortality at 500 g/ha [10] was 100%.

From patent publication US20230028441A1, “NOVEL HETEROARYL-TRIAZOLE COMPOUNDS AS PESTICIDES” (Bayer Aktiengesellschaft, priority 2019, published 2023)
